{"source": "patent US11826426B2", "about": "“Nanoscale metal-organic layers and metal-organic nanoplates for x-ray induced photodynamic therapy, radiotherapy, radiodynamic therapy, chemotherapy, immunotherapy, and any combination thereof” (priority 2017, dated 2023)", "assay_type_in_all_cases": "cell-based, murine", "key": {"CT26 cells [1]": {"test_system": "CT26 cells", "test": "Annexin V/dead cell apoptosis kit, flow cytometry, CT26", "details": "48 h", "protocol": "(§1) The in vitro anticancer efficacy of Hf12-DBP and Hf12-DBP-Pt were further evaluated on CT26 and MC38 cells. Cells were cultured in a 6-well plate overnight and incubated with particles at a Hf concentration of 20 μM for 4 h followed by irradiation with 0 or 2 Gy X-ray (250 kVp, 15 mA, 1 mm Cu filter). 48 h later, the cells were stained according to the AlexaFluor 488 Annexin V/dead cell apoptosis kit (Life Technologies, Carlsbad, California United States of America) and quantified by flow cytometry.\nas §1, with “POM, Hf6-QPDC-Ir, Hf12-QPDC-Ir” for “Hf12-DBP”, “POM@Hf12-QPDC-Ir” for “Hf12-DBP-Pt”, “were” for “were further”, “μM or equivalent W concentration” for “μM”, “California,” for “California”"}, "MC38 cells": {"test_system": "MC38 cells", "test": "Annexin V/dead cell apoptosis kit, flow cytometry, MC38", "details": "48 h", "protocol": "as §1\nas §1, with “POM, Hf6-QPDC-Ir, Hf12-QPDC-Ir” for “Hf12-DBP”, “POM@Hf12-QPDC-Ir” for “Hf12-DBP-Pt”, “were” for “were further”, “μM or equivalent W concentration” for “μM”, “California,” for “California”, “cytometry. […]” for “cytometry.”"}, "COX-2": {"test_system": "COX-2", "test": "COX-2 assay (cell membrane damage by RDT)", "details": "CT26, 10 μM 4 h; for COX-2 mean fluorescence intensities (flow cytometry): with X-ray irradiation", "protocol": "Thus, the cell membrane damage caused by RDT upon X-ray irradiation was investigated by COX-2 assay (BD Bioscience, Franklin Lakes, New Jersey, United States of America) in CT26 cells. Cells were seeded on cover slides in 6-well plates and cultured for 12 h then incubated with Hf12-DBP, Hf12-DBP-Pt, H2DBP-Pt or PBS at a Hf concentration of 10 μM or ligand with concentration of 10 μM for 4 h followed by X-ray irradiation (250 kVp, 15 mA, mm Cu filter) at 0 and 2 Gy dose. Cells were fixed with 4% paraformaldehyde immediately after X-ray or light irradiation. Biotin-conjugated anti-COX-2 antibody with concentration of 10 μg/mL were incubated with cells at 4° C. overnight then followed by incubation with Cy3-conjugated streptavidin. The nuclei were stained with DAPI. […] The cells were imaged with CLSM and quantified by flow cytometry.\nTo further study the stronger RDT effect from the Hf12-DBP-Pt treated group, flow cytometry was performed to quantify the difference of COX-2 upregulation of cells treated with Hf12-DBP-Pt, Hf12-DBP, H2DBP-Pt or H2DBP. The mean fluorescence intensities were 7441, 1804, 821, and 225 for the t cells treated with Hf12-DBP-Pt, Hf12-DBP, H2DBP-Pt and H2DBP with X-ray irradiation, respectively."}, "CT26 cells [2]": {"test_system": "CT26 cells", "test": "Intracellular singlet oxygen generation (SOSG, CLSM), Example 1", "details": "20 μM based on Ir, Ru or BPY, 8 h, X-ray 2 Gy", "protocol": "^1O2 generation in live cells was detected by Singlet Oxygen Sensor Green (SOSG, Life Technology, USA). CT26 cells were seeded in a 3.5-cm petri dish and cultured for 12 h. The culture medium was then replaced with fresh medium containing 1 μM SOSG to preload the cells with SOSG. After incubating for 30 min, the cells were washed by PBS three times to remove excess SOSG. The cells were incubated in PBS, with Hf-MOLs or ligands at a ligand concentration of 20 μM for 8 h, then washed with PBS three times to remove excess MOLs or ligands. X-ray irradiation was applied to cells at a dose of 2 Gy (250 kVp, 15 mA, 1-mm Cu filter). Confocal laser scanning microscopy (CLSM; FV1000 Laser Scanning Confocal Microscope, Olympus Corporation, Tokyo, Japan) was used to visualize the ^1O2 generated in the live cells by detecting the green fluorescence inside the cells.\nThe mechanism of X-ray induced cytotoxicity on CT26 cells was explored. ^1O2 generation in live cells was examined by Singlet Oxygen Sensor Green (SOSG) and detected by confocal laser scanning microscopy (CLSM). After preloading cells with SOSG and incubating them with PBS, Hf-MOLs, or H3BPY ligand for 8 h at a concentration of 20 μM based on Ir, Ru, or BPY, respectively, they were irradiated with X-rays at a dose of 2 Gy, immediately followed by CLSM imaging."}, "[3]": {"details": "Table 8, 0 Gy (dark), Hf 20 μM 4 h"}, "[4]": {"details": "Table 8, 2 Gy X-ray, Hf 20 μM 4 h"}, "[5]": {"details": "Table 9, 0 Gy (dark), Hf 20 μM 4 h"}, "[6]": {"details": "Table 9, 2 Gy X-ray, Hf 20 μM 4 h"}, "[7]": {"details": "Table 10, 0 Gy (dark), Hf 20 μM or equivalent W 4 h"}, "[8]": {"details": "Table 10, 2 Gy X-ray, Hf 20 μM or equivalent W 4 h"}, "[9]": {"details": "Table 11, 0 Gy (dark), Hf 20 μM or equivalent W 4 h"}, "[10]": {"details": "Table 11, 2 Gy X-ray, Hf 20 μM or equivalent W 4 h"}}, "data": [{"molecule": "O=C(O)c1ccc(-c2c3nc(cc4ccc([n-]4)c(-c4ccc(C(=O)O)cc4)c4nc(cc5ccc2[n-]5)C=C4)C=C3)cc1.[Pt+2]", "note": "[H2DBP-Pt, platinum-complexed 5, 15-di(p-benzoato)porphyrin]", "values": [{"measurement": "Early apoptosis", "setting": "CT26 cells [1]; [3]", "result": 0.66, "unit": "%"}, {"measurement": "Healthy cells", "setting": "CT26 cells [1]; [3]", "result": 88.2, "unit": "%"}, {"measurement": "Late apoptosis", "setting": "CT26 cells [1]; [3]", "result": 4.86, "unit": "%"}, {"measurement": "Necrosis", "setting": "CT26 cells [1]; [3]", "result": 6.26, "unit": "%"}, {"measurement": "Early apoptosis", "setting": "CT26 cells [1]; [4]", "result": 0.73, "unit": "%"}, {"measurement": "Healthy cells", "setting": "CT26 cells [1]; [4]", "result": 69.3, "unit": "%"}, {"measurement": "Late apoptosis", "setting": "CT26 cells [1]; [4]", "result": 8.45, "unit": "%"}, {"measurement": "Necrosis", "setting": "CT26 cells [1]; [4]", "result": 21.5, "unit": "%"}, {"measurement": "Early apoptosis", "setting": "MC38 cells; [5]", "result": 3.99, "unit": "%"}, {"measurement": "Healthy cells", "setting": "MC38 cells; [5]", "result": 93.9, "unit": "%"}, {"measurement": "Late apoptosis", "setting": "MC38 cells; [5]", "result": 1.90, "unit": "%"}, {"measurement": "Necrosis", "setting": "MC38 cells; [5]", "result": 3.18, "unit": "%"}, {"measurement": "Early apoptosis", "setting": "MC38 cells; [6]", "result": 15.9, "unit": "%"}, {"measurement": "Healthy cells", "setting": "MC38 cells; [6]", "result": 78.2, "unit": "%"}, {"measurement": "Late apoptosis", "setting": "MC38 cells; [6]", "result": 5.31, "unit": "%"}, {"measurement": "Necrosis", "setting": "MC38 cells; [6]", "result": 0.55, "unit": "%"}, {"measurement": "COX-2 mean fluorescence intensities (flow cytometry)", "setting": "COX-2", "result": 821}, {"measurement": "COX-2 upregulation by CLSM", "setting": "COX-2; with X-ray irradiation (2 Gy)", "result": "No fluorescence signal"}, {"measurement": "COX-2 upregulation by CLSM", "setting": "COX-2; without X-ray irradiation", "result": "No fluorescence signal"}]}, {"molecule": "O=C(O)c1ccc(-c2c3nc(cc4ccc([nH]4)c(-c4ccc(C(=O)O)cc4)c4nc(cc5ccc2[nH]5)C=C4)C=C3)cc1", "note": "[H2DBP, 5,15-di(p-benzoato)porphyrin]", "values": [{"measurement": "COX-2 mean fluorescence intensities (flow cytometry)", "setting": "COX-2", "result": 225}]}, {"molecule": "[P2W18O62]^6− [POM, reference compound]", "values": [{"measurement": "Early apoptosis", "setting": "CT26 cells [1]; [7]", "result": 0.051, "unit": "%"}, {"measurement": "Healthy cells", "setting": "CT26 cells [1]; [7]", "result": 99.7, "unit": "%"}, {"measurement": "Late apoptosis", "setting": "CT26 cells [1]; [7]", "result": 0.0057, "unit": "%"}, {"measurement": "Necrosis", "setting": "CT26 cells [1]; [7]", "result": 0.21, "unit": "%"}, {"measurement": "Early apoptosis", "setting": "CT26 cells [1]; [8]", "result": 5.71, "unit": "%"}, {"measurement": "Healthy cells", "setting": "CT26 cells [1]; [8]", "result": 83.1, "unit": "%"}, {"measurement": "Late apoptosis", "setting": "CT26 cells [1]; [8]", "result": 8.14, "unit": "%"}, {"measurement": "Necrosis", "setting": "CT26 cells [1]; [8]", "result": 3.05, "unit": "%"}, {"measurement": "Early apoptosis", "setting": "MC38 cells; [9]", "result": 0.44, "unit": "%"}, {"measurement": "Healthy cells", "setting": "MC38 cells; [9]", "result": 97.3, "unit": "%"}, {"measurement": "Late apoptosis", "setting": "MC38 cells; [9]", "result": 0.86, "unit": "%"}, {"measurement": "Necrosis", "setting": "MC38 cells; [9]", "result": 1.53, "unit": "%"}, {"measurement": "Early apoptosis", "setting": "MC38 cells; [10]", "result": 2.35, "unit": "%"}, {"measurement": "Healthy cells", "setting": "MC38 cells; [10]", "result": 70.9, "unit": "%"}, {"measurement": "Late apoptosis", "setting": "MC38 cells; [10]", "result": 14.0, "unit": "%"}, {"measurement": "Necrosis", "setting": "MC38 cells; [10]", "result": 12.7, "unit": "%"}]}, {"molecule": "O=C(O)c1ccc(-c2cc(-c3ccc(C(=O)O)cc3)nc(-c3cc(C(=O)O)ccn3)c2)cc1", "note": "[H3BPY, 4′,6′-dibenzoato-[2,2′-bipyridine]-4-carboxylic acid]", "values": [{"measurement": "SOSG fluorescence (^1O2 in live cells)", "setting": "CT26 cells [2]", "result": "no SOSG signal"}]}]}
